# Measurements taken from patent US8993256B2, “Fusion proteins and polynucleotide constructs to measure protein turn-over” (priority 2006, dated 2015).
# B1: BDNF: growth factor used for translational induction (protein, UniProt P23560 19-247, looked up)
# Neurotrophic factor BDNF …: APMKEANIRGQGGLAYPGVRTHGTLESVNGPKAGSRGLTSLADTFEHVIEELLDEDQKVRPNEENNKDADLYTSRVMLSSQVPLEPPLLFLLEEYKNYLDAANMSMRVRRHSDPARRGELSVCDSISEWVTAADKKTAVDMSGGTVTVLEKVPVSKGQLKQYFYETKCNPMGYTKEGCRGIDKRHWNSQCRTTQSYVRALTMDSKKRIGWRFIRIDTSCVCTLTIKRGR
# How the values were obtained:
# HCV NS3 protease [1] = type: cell-based, hepatitis C virus; conditions: HEK293 cells grown with or without BILN-2061 (0, 1 μM, or 10 μM)
# Excerpt: For testing of the drug-regulatable epitope tag concept by immunoblotting, a construct of linear fusions of PSD-95, HCV NS3 protease flanked on both sides by cleavage sites, an HA epitope tag, and the cyan fluorescent protein (CFP) was used.
# For each construct, HEK293 cells were transfected with Lipofectamine 2000, grown with or without the NS3 protease inhibitor BILN-2061 (Lamarre et al., 2003), and immunoblotted after boiling/SDS lysis with anti-PSD-95 to differentiate uncleaved and cleaved products by molecular weight.
# Experiments using the constructs of the disclosure were performed in transiently transfected mammalian cells by immunoblotting.
# HCV NS3 protease [2] = biological target: HCV NS3 protease (Hepatitis C virus genotype 1a, UniProt P27958); type: cell-based; conditions: TimeSTAMPt; hippocampal neurons 18 DIV, 9 DPT
# Excerpt: (§1) Hippocampal neurons were dissected from postnatal day 0 or 1 rat pups and cultured in Neurobasal medium supplemented with B27 and glutamine. For immunoblotting experiments, neurons were transfected prior to plating using the Amaxa Nucleofector protocol. For other experiments, neurons were transfected at 7-10 DIV by calcium phosphate.
# (§2) To recapitulate endogenous mechanisms of mRNA localization and translation, the 5′ and 3′ untranslated regions of each gene were included in all constructs.
# HCV NS3 protease [3] = biological target: HCV NS3 protease (Hepatitis C virus genotype 1a, UniProt P27958, T1080A); type: cell-based; conditions: TimeSTAMPa; hippocampal neurons 18 DIV, 9 DPT
# Excerpt: as §1, §2
# [4] = biological target: HSV-TimeSTAMPt-HA-dCaMKII (Hepatitis C virus genotype 1a, UniProt P27958); type: in vivo, Drosophila melanogaster; conditions: adult flies, brains analyzed 6 hours after BILN-2061
# Excerpt: Homozyous transformed lines were established from single progeny of embryos injected with pUAST-HSV-TimeSTAMPt-HA-dCaMKII or pUAST-HSV-TimeSTAMPa-HA-dCaMKII. […] Male homozygotes with third-chromosome insertions were crossed to elav-GAL4; UAS-tubulin-GFP; + females, and the male elavGAL4/Y; UAS-tubulin-GFP/+; HSV-TimeSTAMP-HA-dCaMKII/+ progeny were used for experiments within 2 days post-eclosion.
# For experiments involving HSV-TimeSTAMPt-HA-dCaMKII, flies were anesthesized by carbon dioxide, then a hole was punctured in the medial ocellus region using a glass micropipette with a 10 μm bore and a 25 nL drop of 2 mM BILN-2061 in 20% DMSO 5% Cremophor EL in Hank's buffered saline solution (HBSS) was placed over the region. […] For HSV-TimeSTAMPa-HA-dCaMKII, flies were starved for 12 hours with only water, then placed in a vial with an emulsion of 30% (w/v) yeast, 30% (v/v) glycerol, 30% (v/v) water, 5% green food coloring, 5% dimethylformamide, and 500 μM BILN-2061. […] For analysis, flies were decapitated and brains were simultaneously dissected and fixed in HBSS with 4% paraformaldehyde and 0.2% Triton X-100 for 40 minutes at room temperature. Brains were processed for immunocytochemistry by standard methods and imaged on a Zeiss LSM510 or LSM5Live confocal microscope.
# Transgenic flies were generated expressing this fusion protein in all neurons.
# [5] = system: new protein synthesis in neurons; test: Dependence of TimeSTAMP tag appearance on new protein synthesis in neurons; type: cell-based, rat; conditions: for HA-tagged Arc appearing after incubation in 10 μM BILN for 6 hours: Arc-TimeSTAMPa-HA neurons, 7 DIV, simultaneous treatment (cycloheximide 50 μg/mL or BDNF)
# Excerpt: as §1, §2
# HSV-TimeSTAMPt-HA-dCaMKII, sequence (P27958 1027-1208): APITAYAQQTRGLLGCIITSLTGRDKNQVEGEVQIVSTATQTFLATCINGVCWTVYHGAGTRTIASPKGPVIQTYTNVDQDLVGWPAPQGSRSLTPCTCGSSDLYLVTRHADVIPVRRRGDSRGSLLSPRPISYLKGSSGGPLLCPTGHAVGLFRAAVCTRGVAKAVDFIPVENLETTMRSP
# HCV NS3 protease (Hepatitis C virus genotype 1a, UniProt P27958), sequence (P27958 1027-1208): as above
# HCV NS3 protease (Hepatitis C virus genotype 1a, UniProt P27958, T1080A), sequence (P27958 1027-1208 T1080A): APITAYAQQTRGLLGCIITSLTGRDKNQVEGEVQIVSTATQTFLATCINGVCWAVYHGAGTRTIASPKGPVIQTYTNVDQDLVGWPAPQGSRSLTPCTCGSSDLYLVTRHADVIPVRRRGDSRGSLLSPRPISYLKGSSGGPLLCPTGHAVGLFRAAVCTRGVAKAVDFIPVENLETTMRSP
Molecule,Cleavage of constructs containing the NS3 domain alone without NS4A cofactor (immunoblot) (HCV NS3 protease [1]),HA immunofluorescence induction (HCV NS3 protease [2]),HA immunofluorescence induction (HCV NS3 protease [3]),HSV labelling for newly synthesized dCaMKII in fly brain [4],"Synaptic HA staining of PSD-95-GFP-TimeSTAMPa-HA after 6 hours of BILN-2061 ([5]; 50 μg/mL cycloheximide, 18 DIV neurons, 9 DPT)",HA-tagged Arc appearing after incubation in 10 μM BILN for 6 hours [5]
COc1ccc2c(O[C@@H]3C[C@H]4C(=O)N[C@]5(C(=O)O)C[C@H]5/C=C\CCCCC[C@H](NC(=O)OC5CCCC5)C(=O)N4C3)cc(-c3csc(NC(C)C)n3)nc2c1 [BILN-2061],inhibited,121 fold,20 fold,HSV labelling for newly synthesized dCaMKII is present in the mushroom bodies,–,–
C[C@@H]1C[C@@H]([C@H](O)CC2CC(=O)NC(=O)C2)C(=O)[C@@H](C)C1 [cycloheximide],–,–,–,–,No staining,blocked
B1,–,–,–,–,–,increased
